# Measurements reported in US8536196B2, “Substituted 1,3-dioxanes useful as PPAR modulators” (Evolva SA, priority 2007, dated 2013).
# Experiments:
# [1] = tested on: mice (FeCl3 induced femoral artery thrombosis); assay: FeCl3 arterial thrombosis mouse model (occlusion time, blood flow); format: in vivo
# Description: The solutions were diluted 3.3-fold in saline and 100 μl/25 g was injected.
# During the experiments, a soluble potassium salt of the drug was provided, diluted in saline. Of this formulation, 100 μl/25 g was injected i.v. in the tail vein (dose of 100 mg/kg).
# Aspirin is given the same way at a dose of 200 mg/kg. Clopidogrel is administered by oral gavage at a dose of 20 mg/kg at 6-7 hours prior to the experiment. The solutions were coded (except for clopidogrel) and the operator was blinded to the code. The animals assigned to each group were matched for body weight. All mice used were 8-10 weeks old males and were in a 100% Swiss genetic background.
# (§1) The flow in each image is expressed as a percentage of that at the contralateral side, and data are averaged for all 120 images to determine total flow. The same analysis is performed for 10 min intervals (which gives essentially the same information as the area under the curve). […] Flow before treatment is recorded as 100%, and that in occluded arteries as 0%. At the end of the experiment, blood is collected on 0.01M citrate by heart puncture for determination of blood cell counts. Plasma is prepared by centrifugation and stored at −20° C. for determination of drug levels.
# Statistical analysis for differences between two groups is performed by non-parametric Student t-test. Occlusion times >30 min were considered equal to 30 min for statistical analysis. It should be noted that this approach may result in a statistical bias, the more so because the number of experiments is not the same in the different groups. Significance is set at p<0.05.
# [2] = Blood cell analysis at end of thrombosis experiment; format: in vivo, mouse
# Description: as §1
# Table VI summarizes the results of blood cell analysis performed on a sample taken at the end of the observation period. (Z)-6-((2S,4S,5R)-2-(2-chlorophenyl)-4-(2-hydroxyphenyl)-1,3-dioxan-5-yl)hex-4-enoic is referred to in Table VI as EV.
# MEFs / 3T3-L1 = assay: Adipocyte differentiation induction assay (Oil Red O staining); format: cell-based, mouse; parameters: key to Adip. (adipocyte differentiation): 0: similar results to DPD; −1: even less adipocyte differentiation; +1: more adipocyte differentiation (both relative to DPD); conditions: for Adip. (adipocyte differentiation): relative to DPD (SN1)
# Description: This example describes an assay for determining adipocyte differention. Compounds are tested to see whether they induce adipocyte differentiation and also to see whether they inhibit adipocyte differention.
# MEFs were grown in AmnioMax basal medium (Gibco) supplemented with 7.5% Amniomax supplement C-100 (Gibco), 7.5% Fetal Bovine Serum (FBS), 2 mM Glutamine, 62.5 μg/ml penicillin and 100 μg/ml Streptomycin (growth medium). At confluence, MEFs were induced to differentiation in growth medium with the addition of 1 μM dexamethasone (Sigma) 0.5 mM isobutylmethylxanthine (Sigma), 5 μg/ml insulin (Sigma) and 10 μM test compound dissolved in DMSO or DMSO alone. Medium was subsequently renewed every 48 hrs with growth media supplemented with 5 μg/ml Insulin and ligand or DMSO.
# Briefly, to test compounds as inducers of adipocyte differentiation, 3T3-L1 are grown to confluence in DMEM with 10% Calf serum (CS), typically in 24 well dishes. At 2 days post confluence (day 0), cells are induced to differentiate with DMEM supplemented with 10% fetal bovine serum (FBS), 1 μM dexamethasone and the test compound (01, 1 and 10 μM). BRL49653 (1.0 μM dissolved in 100% DMSO) is used as a positive control. After 48 h, the cells are re-fed with DMEM containing 10% FBS supplemented with the test compound or the positive control. From day 4, cells are grown in DMEM with 10% FBS and are changed every second day until day 8. At day 8, cells are stained with Oil Red O as described below.
# Cells cultured as described above are used for Oil Red staining. Dishes are washed in PBS and cells were fixed in 3.7% paraformaldehyde for 1 h and stained with oil red O as described in (Hansen et al 1999). Oil red O solution stock solution is prepared by dissolving 0.5 g of Oil Red O (Sigma) in 100 mL of isopropanol. Oil re 0 working solution is prepared by diluting a stock solution with water (6:4) followed by filtration.
# Table II summarizes results obtained with different analogs of DPD (SN1), “0” representing similar results to DPD, “−1” representing even less adipocyte differentiation, “+1” representing more adipocyte differentiation (both relative to DPD) and “−” meaning not assayed.
# Gal4-PPARgammaLBD = molecular target: T1, Gal4-PPARgammaLBD (Homo sapiens, UniProt P37231); assay: PPARgamma transactivation assay (Gal4-PPARgammaLBD, UASx4-TK-luc reporter); format: cell-based; conditions: for PPAR (PPARgamma activating activity): level of activity relative to 10 μM DPD (SN1)
# T1 construct: expressed in transfected cells; host or cells: mouse embryonic fibroblasts (MEFs) or ME3 cells
# T1 sequence (P37231 204-505): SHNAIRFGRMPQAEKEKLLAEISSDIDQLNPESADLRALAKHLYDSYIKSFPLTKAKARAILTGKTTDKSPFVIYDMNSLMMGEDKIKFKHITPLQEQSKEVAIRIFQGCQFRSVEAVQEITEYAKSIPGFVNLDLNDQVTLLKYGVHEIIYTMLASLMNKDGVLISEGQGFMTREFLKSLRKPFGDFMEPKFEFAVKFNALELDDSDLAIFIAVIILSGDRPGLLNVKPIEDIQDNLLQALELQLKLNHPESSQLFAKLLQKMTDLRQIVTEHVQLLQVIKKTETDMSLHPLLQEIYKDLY
# Excerpt: This is an example of a transactivation assay for determining PPAR gamma modulating activity.
# The UASx-4-TK-luc reporter construct (where UAS refers to “upstream activator sequence”) contains four Gal4-responsive elements. The plasmid Gal4-PPARgammaLBD encodes a Gal4-DBD-PPARgamma-LBD fusion protein (i.e. the DNA-binding domain, DBD, of Gal4 fused to the ligand-binding domain, LBD, of PPARgamma) capable of transactivating the UASx-4-TK-luc reporter plasmid by binding to the UAS. The CMV-beta-galactosidase plasmid (where CMV is cytomegalovirus) is used for normalization of experimental values.
# The cells were replated, typically in 24 well plates, so that at the time of transfection the cells are 50-70% confluent.
# Briefly, per well in a 24 well plate, UASx4TKIuc (0.2 μg) Gal4-PPARgammaLBD (or pM-hPPARgamma-LBD; 0.1 μg) and CMV-beta-galactosidase (0.05 μg) in 30 μL DMEM (free of serum and antibiotics) is mixed with 30 μL DMEM (free of serum and antibiotics) containing 1 μL metafectenein. The mixture is incubated at room temperature for 20 min to allow formation of nucleic acid-lipid complexes and then approximately 60 μL is added to each well containing the 50-60% confluent cells. […] Cells were harvested after 12-24 hours and luciferase and beta-galactosidase activities were measured according to standard protocols.
# “−” means that testing was not performed.
# [3] = Aspirin 200 mg/kg i.v., n = 7, mean ± SEM
# [4] = Clopidogrel 20 mg/kg oral gavage, n = 6, mean ± SEM
smiles,measurement,setting,value
"O=C([O-])CC/C=C\C[C@@H]1CO[C@H](c2ccccc2Cl)O[C@@H]1c1ccccc1O.[K+] [(Z)-6-((2S,4S,5R)-2-(2-chlorophenyl)-4-(2-hydroxyphenyl)-1,3-dioxan-5-yl(hex-4-enoic potassium]","blood flow, time window 0-10 min",[1]; 100 mg/kg in saline i.v.,significantly higher blood flow as compared to either saline alone (p=0.009) or to aspirin (p=0.0006)
same,occlusion time,[1]; 100 mg/kg in saline i.v.,prolonged the occlusion time
same,total blood flow,[1]; 100 mg/kg in saline i.v.,significantly improved total blood flow as compared to either saline (p=0.0032) or aspirin (p=0.0021)
"CC(=O)Oc1ccccc1C(=O)O [Aspirin, reference compound]",Hematocrit,[2]; [3],72 ± 0.60%
same,Hemoglobin,[2]; [3],15 ± 0.19 g/dL
same,Lymphocytes,[2]; [3],60 ± 11%
same,Neutrophils,[2]; [3],39 ± 11%
same,Platelets,[2]; [3],1020 ± 59 ×10^3/μl
same,Red blood cells,[2]; [3],9.3 ± 0.10 ×10^6/μl
same,White blood cells,[2]; [3],1.4 ± 0.42 ×10^3/μl
same,occlusion time,[1]; 200 mg/kg i.v. in the tail vein,no effect
same,total blood flow,"[1]; 200 mg/kg i.v., versus vehicle",no significant effect
"COC(=O)[C@H](c1ccccc1Cl)N1CCc2sccc2C1 [Clopidogrel, reference compound]",Hematocrit,[2]; [4],72 ± 2.7%
same,Hemoglobin,[2]; [4],15 ± 0.60 g/dL
same,Lymphocytes,[2]; [4],47 ± 7.8%
same,Neutrophils,[2]; [4],50 ± 7.2%
same,Platelets,[2]; [4],1060 ± 106 ×10^3/μl
same,Red blood cells,[2]; [4],9.0 ± 0.36 ×10^6/μl
same,White blood cells,[2]; [4],0.62 ± 0.22 ×10^3/μl
same,occlusion,"[1]; 20 mg/kg oral gavage 6-7 hours prior to the experiment, 30 min observation",totally prevents occlusion within 30 min in 6/7 experiments
same,total blood flow,"[1]; 20 mg/kg oral gavage, versus vehicle",significantly improved total blood flow
"COc1ccccc1[C@@H]1O[C@H](c2ccccc2Cl)OC[C@@H]1C/C=C\CCC(=O)O [Compound 4, (Z)-6-((2R,4R,5S)-2-(2-chlorophenyl)-4-(2-methoxyphenyl)-1,3-dioxan-5-yl)hex-4-enoic acid]",Adip. (adipocyte differentiation),MEFs / 3T3-L1,0
"COc1ccccc1[C@H]1O[C@@H](c2ccccc2Cl)OC[C@H]1C/C=C\CCC(=O)O [Compound 5, (Z)-6-((2S,4S,5R)-2-(2-chlorophenyl)-4-(2-methoxyphenyl)-1,3-dioxan-5-yl)hex-4-enoic acid]",Adip. (adipocyte differentiation),MEFs / 3T3-L1,0
O=C(O)CC/C=C\C[C@@H]1CO[C@H](c2ccccc2Cl)O[C@@H]1c1ccccc1O [compound 1],Adip. (adipocyte differentiation),MEFs / 3T3-L1,0
O=C(O)CC/C=C\C[C@@H]1COC(c2cccc(Cl)c2Cl)O[C@@H]1c1ccccc1O (stereo partly drawn) [compound 2],Adip. (adipocyte differentiation),MEFs / 3T3-L1,0
O=C(O)CC/C=C\C[C@@H]1COC2(CCCCC2)O[C@@H]1c1ccccc1O [compound 6],Adip. (adipocyte differentiation),MEFs / 3T3-L1,0
COc1ccc(Oc2ccccc2C2OC[C@@H](C/C=C\CCC(=O)O)[C@@H](c3ccccc3O)O2)cc1 (stereo partly drawn) [compound 7],PPARgamma activity (summary in words),Gal4-PPARgammaLBD,higher potency
same,adipocyte differentiation (summary in words),MEFs / 3T3-L1,low or no adipocyte differentiation
same,Adip. (adipocyte differentiation),MEFs / 3T3-L1,0
O=C(O)CC/C=C\C[C@@H]1COC2(CCNCC2)O[C@@H]1c1ccccc1O [compound 8],PPAR (PPARgamma activating activity),Gal4-PPARgammaLBD,Boc de- rivative Inactive
same,Adip. (adipocyte differentiation),MEFs / 3T3-L1,−1
O=C(O)CC/C=C\C[C@@H]1COC(c2cccc3ccccc23)O[C@@H]1c1ccccc1O (stereo partly drawn) [compound 9],Adip. (adipocyte differentiation),MEFs / 3T3-L1,0
O=C(O)CC/C=C\C[C@@H]1COC(c2ccccc2-c2ccccc2)O[C@@H]1c1ccccc1O (stereo partly drawn) [compound 10],PPARgamma activity (summary in words),Gal4-PPARgammaLBD,PPARgamma antagonist
same,PPAR (PPARgamma activating activity),Gal4-PPARgammaLBD,Antagonist
same,Adip. (adipocyte differentiation),MEFs / 3T3-L1,0
CCCCCC1OC[C@@H](C/C=C\CCC(=O)O)[C@@H](c2ccccc2O)O1 (stereo partly drawn) [compound 11],Adip. (adipocyte differentiation),MEFs / 3T3-L1,+1
C/C=C/CC1OC[C@@H](C/C=C\CCC(=O)O)[C@@H](c2ccccc2O)O1 (stereo partly drawn) [compound 12],Adip. (adipocyte differentiation),MEFs / 3T3-L1,−1
O=C(O)CC/C=C\C[C@@H]1COC(c2coc3ccc(Cl)cc3c2=O)O[C@@H]1c1ccccc1O (stereo partly drawn) [compound 13],PPARgamma activity (summary in words),Gal4-PPARgammaLBD,higher potency
same,adipocyte differentiation (summary in words),MEFs / 3T3-L1,low or no adipocyte differentiation
same,Adip. (adipocyte differentiation),MEFs / 3T3-L1,−1
COc1ccccc1[C@H]1OC[C@@H](C/C=C\CCC(=O)O)[C@@H](c2ccccc2O)O1 [compound 18],Adip. (adipocyte differentiation),MEFs / 3T3-L1,−1
COc1cccc([C@H]2OC[C@@H](C/C=C\CCC(=O)O)[C@@H](c3ccccc3O)O2)c1OC [compound 19],Adip. (adipocyte differentiation),MEFs / 3T3-L1,0
CC(C)[C@H]1OC[C@@H](C/C=C\CCC(=O)O)[C@@H](c2ccccc2O)O1 [compound 20],Adip. (adipocyte differentiation),MEFs / 3T3-L1,0
O=C(O)CC/C=C\C[C@@H]1CO[C@H](C2CCCCC2)O[C@@H]1c1ccccc1O [compound 21],Adip. (adipocyte differentiation),MEFs / 3T3-L1,0
O=C(O)CCC/C=C\C[C@@H]1CO[C@H](c2ccccc2Cl)O[C@@H]1c1ccccc1O [compound 23],Adip. (adipocyte differentiation),MEFs / 3T3-L1,+1
COc1ccccc1[C@H]1OC(c2ccccc2Cl)OC[C@H]1C/C=C\CCC(=O)O (stereo partly drawn) [compound 27],PPAR (PPARgamma activating activity),Gal4-PPARgammaLBD,Inactive
COc1ccccc1[C@H]1O[C@@H](c2c(Cl)cccc2Cl)OC[C@H]1C/C=C\CCC(=O)O [compound 28],PPAR (PPARgamma activating activity),Gal4-PPARgammaLBD,Inactive
O=C(O)CCCCCCC[C@@H]1CO[C@H](c2ccccc2Cl)O[C@@H]1c1ccccc1O [compound 31],Adip. (adipocyte differentiation),MEFs / 3T3-L1,0
CC1(C)OC[C@@H](C/C=C\CCCCC(=O)O)[C@@H](c2ccccc2O)O1 [compound 36],PPAR (PPARgamma activating activity),Gal4-PPARgammaLBD,Inactive
COc1ccccc1[C@H]1OC(C)(C)OC[C@H]1C/C=C\CCCCC(=O)O [compound 37],PPAR (PPARgamma activating activity),Gal4-PPARgammaLBD,Inactive
same,Adip. (adipocyte differentiation),MEFs / 3T3-L1,0
